Series [1] concerns radiation dermatitis. The note with it: topical, applied up to 20 minutes before radiotherapy; cited from earlier work.
For series [2], the system named is alpha2-adrenergic receptors. The note with it: cited from earlier work.
How the values of series [3] were obtained: (§1) Saturated solutions were prepared by adding an excess of drug substance to various solvents and storing the samples in sealed containers for 24 hours at room temperature with continuous stirring.
(§2) After the equilibration period, samples were centrifuged or filtered and the brimonidine tartrate was quantified using the Thermo Scientific Dionex U3000 UPLC-UV system. The chromatographic conditions are described below: • Column: Sunfire C18 150 mm×4.6 mm, 3.5 μm • Temperature of column: 40° C. • Volume injected: […] • Flow: 0.8 ml/minute • UV detection: 246 nm
Saturated solutions were prepared, incubated and measured as described in Example 1.

The procedure of series [4]:
as §1
The majority of the samples were stirred using a magnetic stirrer; however, in the case of viscous samples (such as pure glycerine), the samples were stirred using a rotary mixer. The speed of the rotary mixer was adjusted to ensure proper mixing of the sample, this generally involving slower rotation speeds.
as §2
This is another data set of the same source.

The conditions of series [5]: value as per literature (ALPHAGAN Product Monograph), conditions not specified, cited from earlier work.

Where two headings read alike, the source gives them in different places. Marks after values point to notes of the source that are not given here.

Consider `CNC[C@H](O)c1ccc(O)c(O)c1` [epinephrine], for which the “patients showing a significant benefit” value in series [1] is 50%.

On to `Brc1c(NC2=NCCN2)ccc2nccnc12` [Brimonidine], for which the “selectivity for alpha2-adrenergic receptors over alpha1-adrenergic receptors” value in series [2] was 1,000 times.

Regarding brimonidine tartrate, the “active agent solubilised by non-volatile mixture compared to the aqueous mixture” value in series [3] (PG/PEG-400/GLY/PVP (20:10:5:1) vs PG/PEG-400/GLY/PVP/water (20:10:5:1:40)) is on record as “approximately 22%”. Further, the figures for the “saturation in the aqueous solvent phase of the primary formulation” value in series [3] (concentration of 1% brimonidine tartrate) and in series [3] (concentration of 1.5% brimonidine tartrate) were “around 30%” and approximately 50%, respectively. The Max solubility was 0.45 % (w/w) in series [3] (in PG/PEG-400 (20:10)); 0.66 % (w/w) in series [3] (in PG/PEG-400/GLY (20:10:5)); 0.72 % (w/w) in series [3] (in PG/PEG-400/GLY/PVP (20:10:5:1)); 3.3 % (w/w) in series [3] (in PG/PEG-400/GLY/PVP/Water (20:10:5:1:40)); 0.45 % (w/w) in series [3] (in PG/PEG-400/PVP (20:10:1)); 0.01 % (w/w) in series [4] (in ARLASOLVE DMI, 24 hours, room temperature). For the same molecule, the Max solubility in series [4] (in DMSO, visual solubility, UPLC-UV not performed) is reported as >8.5*** % (w/w); in series [4] (in GLUCAM E10, 24 hours, room temperature), 0.72* % (w/w); in series [4] (in GLUCAM E20, 24 hours, room temperature), 0.88* % (w/w); in series [4] (in Glycerine (GLY, 20 ml scintillation flask)), 1.61 % (w/w); in series [4] (in Hexylene Glycol, 24 hours, room temperature), 0.01 % (w/w); in series [4] (in Na Pyrrolidone Carboxylate (AJIDEW L50), 24 hours, room temperature), 0.06 % (w/w). In addition, the Max solubility was 0.10 % (w/w) in series [4] (in PEG-400, 24 hours, room temperature); 0.01** % (w/w) in series [4] (in Propylene Carbonate, 24 hours, room temperature); 0.56 % (w/w) in series [4] (in Propylene glycol, measured value); 0.05 % (w/w) in series [4] (in TRANSCUTOL, 24 hours, room temperature); 6.40 % (w/w) in series [4] (in WATER, measured value); ~0.1**** % (w/w) in series [5] (in Propylene glycol). Also, the Max solubility in series [5] (in WATER) is 3.4**** % (w/w).

Source of the values: US20240100044A1, “HYDROGEL COMPOSITION AND USES THEREOF IN THE PREVENTION AND/OR TREATMENT OF SKIN DAMAGE CAUSED BY RADIATION” (TARIAN PHARMA, priority 2021, published 2024).
